Laboratory results reported in US10183021B2, “sGC stimulators” (Ironwood Pharmaceuticals, Inc., priority 2013, dated 2019).

Tests used:
[1] = system: lambs with acute pulmonary hypertension; settings: inhaled microparticles, awake lambs, U-46619-induced pulmonary hypertension; cited from earlier work
obese mice = settings: cited from earlier work
[2] = system: Guinea pig tracheal smooth muscle; test: Electrical field stimulated guinea pig tracheal smooth muscle contraction; settings: inhibition of EFS-induced guinea pig tracheal smooth muscle contraction; 95% CI 0.78-0.94
Source text: It is possible to assess the bronchodilating effects of sGC stimulators by using the system described below. This system allows us to determine potency, efficacy and duration of action of several sGC stimulators, as well as to assess potential side effects such as blood pressure, or heart rate changes.
Animals: Guinea pig, Dunkin Hartley, male, Full barrier-bred and certified free of specific micro-organisms on receipt 525-609 g on the experimental day, Harlan UK Ltd. Guinea pigs are housed in a group of 4 in solid-bottomed cages with Gold Flake bedding in a controlled environment (airflow, temperature and humidity). Food (FD1, Special Diet Services) and water are provided ad libitum.
On each experimental day, a guinea pig is killed by exposure to a rising concentration of CO2 and the trachea removed. […] Tissues are washed with Kreb's buffer and stimulated using the previously determined sub-maximal voltage for 1 hour to establish a stable baseline contraction prior to assessment of compound activity.
A cumulative dose response curve (DRC) to each test substance is then performed and changes in smooth muscle contraction measured. The effect of each test substance in each experiment is expressed as a percentage inhibition of the baseline contraction, normalized to the relevant vehicle controls. […]

patients with BMD = settings: single oral dose of 20 mg; cited from earlier work

## O=C(O)CCCCN(CCc1ccccc1OCc1ccc(CCc2ccccc2)cc1)Cc1ccc(C(=O)O)cc1 [BAY 58-2667]
[1]
  pulmonary vasodilation: dose dependent pulmonary vasodilation

## O=C(O)CCCCN(CCc1cc(F)ccc1OCc1ccc(-c2ccc(C(F)(F)F)cc2)cc1)Cc1ccc(C(=O)O)cc1 [BAY 60-2770]
Obese mice
  effect on overactive bladder: ameliorates overactive bladder in obese mice

## CC(C)[N+]1(C)[C@@H]2CC[C@H]1CC(OC(=O)C(CO)c1ccccc1)C2 (stereo partly shown) [Ipratropium bromide]
[2]
  IC50: 0.86 nM

## CN1CC(=O)N2[C@H](c3ccc4c(c3)OCO4)c3[nH]c4ccccc4c3C[C@@H]2C1=O [tadalafil]
Patients with BMD
  blood flow regulation (exercise-induced attenuation of reflex vasoconstriction): normal blood flow regulation was restored in eight of nine patients
